In the supplement of paper PMC10307832 one finds relative viability data, which are given here for one cell line.

Holding throughout (test): relative viability (nuclei count vs DMSO), 5 days (fraction); higher = more cells survive
Compound in test [1]: CCCS(=O)(=O)Nc1ccc(F)c(C(=O)c2c[nH]c3ncc(-c4ccc(Cl)cc4)cc23)c1F [Vemurafenib] + CC(=O)c1c(C)c2cnc(Nc3ccc(N4CCNCC4)cn3)nc2n(C2CCCC2)c1=O [Palbociclib] (partner 0.5 µM)
The method in brief: (§1)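 Cells from lung cancer lines were seeded into 1536-well plates and, one day later, dosed by pin tool. Treatments were either a single drug or a fixed dose of an anchor drug with five library-drug doses (not always all listed) in √10 steps. After 5 days, nuclei were stained in a one-step fixation (final 0.05% Triton X-100, 1% formaldehyde, 1 ug/ml Hoechst) and counted on 4× images, and relative viability is the treated-to-vehicle nuclei ratio, as the median of duplicate plates.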

Compound in test [2]: CCCS(=O)(=O)Nc1ccc(F)c(C(=O)c2c[nH]c3ncc(-c4ccc(Cl)cc4)cc23)c1F [Vemurafenib] + Cc1cc(Nc2cc(N3CCN(C)CC3)nc(Sc3ccc(NC(=O)C4CC4)cc3)n2)n[nH]1 [Tozasertib] (partner 0.1 µM)
The method in brief:
as §1

Compound in test [3]: COc1cccc2cc(-c3nc([C@H]4CC[C@H](C(=O)O)CC4)n4ncnc(N)c34)[nH]c12 [OSI-027] + CCNC(=O)c1noc(-c2cc(C(C)C)c(O)cc2O)c1-c1ccc(CN2CCOCC2)cc1 [Luminespib] (partner 0.01 µM)
The method in brief:
as §1

Compound in test [4]: Cc1nc(NC(=O)N2CCC[C@H]2C(N)=O)sc1-c1ccnc(C(C)(C)C(F)(F)F)c1 [Alpelisib] + O=C(CCCCCCC(=O)Nc1ccccc1)NO [Vorinostat] (partner 1 µM)
The method in brief: as §1

Turning to UMC-11, the relative viability in test [1] (first compound 0.03162 µM) amounted to 0.328; in test [1] (first compound 0.1 µM) it was 0.313; in test [1] (first compound 1 µM), 0.315; in test [2] (first compound 0.03162 µM), 0.217; in test [2] (first compound 0.1 µM), 0.216; in test [2] (first compound 0.3162 µM), 0.199. The relative viability was 0.212 in test [2] (first compound 1 µM); 1.04 in test [3] (first compound 0.01 µM); 0.949 in test [3] (first compound 0.03162 µM); 0.783 in test [3] (first compound 0.1 µM); 0.637 in test [3] (first compound 0.3162 µM); 0.551 in test [3] (first compound 1 µM). For the same cell line, the relative viability in test [4] (first compound 0.04 µM) was determined as 0.374; in test [4] (first compound 0.1265 µM), 0.31; in test [4] (first compound 0.4 µM) it was 0.403; in test [4] (first compound 1.265 µM), 0.344; in test [4] (first compound 4 µM), 0.31.
